Assay results: PMC7318222, “A Family of Water‐Immiscible, Dipolar Aprotic, Diamide Solvents from Succinic Acid” (Chemsuschem, 2020)

Legend:
[1] = test system: human U2-OS cells; test: CALUX cytotoxicity assay; type: cell-based; settings: for LEC cytotoxicity: PC20, 24 h exposure
Excerpt: (§1) DCM ≥99.5%, chloroform ≥99.5%, DMSO ≥99.0% were purchased from VWR. N,N-diethyl-4-nitroaniline ≥98.0% was purchased from Alfa Aeser. Cyrene was supplied by Circa group. N-butylpyrrolidinone was supplied by Eastman chemicals. N,N-dimethylformamide 99.9% and N,N-dimethylacetamide 99.9% were purchased from Fischer. The flakes of Ultrason® E3020 P Polyarylethersulfone of 55,000 Da were obtained from INGE.BASF, Germany. The CALUX cell lines have been described previously.[1] They are based on human U2-OS cells (ATCC, HTB-96) stably transfected with an expression construct for the full-length human receptor under investigation, and a reporter construct consisting of multimerized responsive elements for the cognate receptor coupled to a minimal promoter element (TATA) and a luciferase gene. Cells were maintained as described previously,[2] using cell culture media and supplements from Fisher Scientific as described in the experimental procedures section. […]
(§2) In vitro reporter gene assays
(§3) The automated CALUX assays were carried out similarly as described earlier,[12] with some adaptations. In brief, the assay was performed in CO2 independent medium (Fisher Scientific, […]
(§4) supplement (Fisher Scientific, 11574466), 10 U/mL penicillin and 10 µg/mL streptomycin. A cell suspension in assay medium was made of 1 × 10^5cells/mL, and white 384-wells plates were seeded with 30 µl cell suspension/well. After 24 h, exposure medium was prepared. A dilution series in 0.5log unit increments of each test compound (in DMSO) was added to a 96-wells plate containing assay medium (2% v/v). Of this exposure mixture, 30 µl was added to the assay plates containing the CALUX cells, resulting in a final DMSO concentration of 1%. Additionally, DMSO blanks and a full dose response curve of the relevant reference compound were included on each plate. All samples were tested in triplicate. The preparation of the compound dilution series as well as the exposure of the cells were performed on a Hamilton StarLET liquid handling robot coupled to a Cytomat incubator.
(§5) Directly after exposure, plates were sealed with non-breathing plate seals (Plate sealer, easy seal transparent; Greiner-Bio-One, 676001). After 24 h the exposure medium was removed using an EL406 washer-dispenser (BioTek) and 10 µl/well triton lysisbuffer was added by the EL406.
(§6) Subsequently, the luciferase signal was measured in a luminometer (InfinitePro coupled to a Connect Stacker, both TECAN). In order to be able to detect receptor antagonism, several assays were also performed in antagonistic mode. The assay procedure was as described above, with the only exception that the EC50 concentration of the reference agonist was present during the exposure.
(§7) The luminometer data was analysed as follows; the average of the triplicate wells was determined, and the average blank (DMSO) value was subtracted. For receptor-based assays the maximum response elicited by the reference compound was set to 100% (full receptor- or pathway activation), and the other values were scaled accordingly. GraphPad Prism was used to fit a sigmoidal curve through the data (four parameters, variable slope). The PC10 concentration was reported as the lowest effect concentration (LEC), which is defined as the concentration where the response elicited by the test compound equals 10% of the maximum response of the reference compound. For antagonist- and cytotoxicity experiments, PC20 values were determined instead, which was defined as the concentration where the test compound causes a 20% decrease in the basal signal, which was […]
(§8) curve, the signal induction above background (DMSO) was determined, and the concentration where the compound elicited a 1.5-fold increase above background was used as LEC.

[2] = test system: p21; test: p21 CALUX assay (DNA damage response); type: cell-based, human; parameters: key: –: no effect observed up to the highest test concentration; settings: cell signaling pathway assay, 24 h exposure
Excerpt: Six of the CALUX assays (TCF through p53) detect activation of several cellular signaling pathways, which are indicative of general stress and acute toxicity, but also a range of more specific types of toxicity, including reproductive toxicity. […]
DCM ≥99.5%, chloroform ≥99.5%, DMSO ≥99.0% were purchased from VWR. […]
Polyarylethersulfone of 55,000 Da were obtained from INGE.BASF, Germany. The CALUX cell lines have been described previously.[1] They are based on human U2-OS cells (ATCC, HTB-96) stably transfected with an expression construct for the full-length human receptor under investigation, and a reporter construct consisting of multimerized responsive elements for the cognate receptor coupled to a minimal promoter element (TATA) and a luciferase gene. Cells were maintained as described previously,[2] using cell culture media and supplements from Fisher Scientific as described in the experimental procedures section. […]
as §2, §3, §4, §5, §6
as §7, with “The PC10 concentration was reported as the lowest effect concentration (LEC), which is defined as the concentration where the response elicited by the test compound equals 10% of the maximum response of the reference compound.” left out
as §8

[3] = target: T1, TRβ (Homo sapiens, UniProt P10828); test: TRβ CALUX reporter gene assay; type: cell-based; parameters: key: –: no effect observed up to the highest test concentration; settings: PC10, 24 h exposure
T1 construct: expression construct for the full-length human receptor under investigation; expressed in transfected cells; host or cells: human U2-OS cells (ATCC HTB-96), stably transfected
T1 sequence (P10828 1-461): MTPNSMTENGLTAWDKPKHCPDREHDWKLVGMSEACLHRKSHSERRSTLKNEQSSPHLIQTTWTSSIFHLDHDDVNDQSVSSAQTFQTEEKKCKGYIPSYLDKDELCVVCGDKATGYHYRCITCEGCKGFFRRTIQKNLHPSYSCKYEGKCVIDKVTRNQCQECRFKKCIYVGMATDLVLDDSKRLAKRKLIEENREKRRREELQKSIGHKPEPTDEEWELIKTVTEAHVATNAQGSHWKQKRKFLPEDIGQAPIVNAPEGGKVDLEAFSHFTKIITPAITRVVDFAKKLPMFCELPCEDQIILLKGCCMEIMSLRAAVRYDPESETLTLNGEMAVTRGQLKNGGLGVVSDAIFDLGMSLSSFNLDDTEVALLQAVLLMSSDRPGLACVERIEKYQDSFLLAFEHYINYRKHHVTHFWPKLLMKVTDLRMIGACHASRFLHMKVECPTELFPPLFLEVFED
Excerpt: as §1, with “2-methylimidazole 99.0%, zinc(II) nitrate hexahydrate ≥99.0%, para-cymene 99.0%, 1,4-dioxane 99.8% (anhydrous), 4-nitroaniline ≥99.0%, 1-octanol ≥99.0%, diglyme ≥99.0%, DMSO-d6 (99.8% D) and chloroform-d (99.8% D) were purchased from Sigma-Aldrich. Toluene ≥99.0%, hexane ≥99.5%, DCM” for “DCM”
as §2, §3, §4, §5
Subsequently, the luciferase signal was measured in a luminometer (InfinitePro coupled to a Connect Stacker, both TECAN). In order to be able to detect receptor antagonism, several assays were also performed in antagonistic mode. […]
The luminometer data was analysed as follows; the average of the triplicate wells was determined, and the average blank (DMSO) value was subtracted. […] For antagonist- and cytotoxicity experiments, PC20 values were determined instead, which was defined as the concentration where the test compound causes a 20% decrease in the basal signal, which was […]
as §8

| Structure (SMILES) | LEC cytotoxicity [1] | LEC p21 [2] | LEC TRβ [3] | cytotoxicity lowest effect concentration (LEC) [1] |
| --- | --- | --- | --- | --- |
| CCCCN(CC)C(=O)CCC(=O)N(CC)CCCC [EBSA, N,N′‐diethyl‐N,N′‐dibutylsuccindiamide] | −3.1 Log M | – | – |  |
| CCCCN(C)C(=O)CCC(=O)N(C)CCCC [MBSA, N,N′‐dimethyl‐N,N′‐dibutylsuccindiamide] | −2.3 Log M | – | – |  |
| CCCCN1CCCC1=O [NBP, N‐Butylpyrrolidinone, reference compound] | −2.1 Log M | – | – |  |
| CN1CCCC1=O [NMP, N‐methyl‐2‐pyrrolidone, reference compound] | −1.4 Log M | −2.0 Log M | – | 40 mM |
| CCCCN(CCCC)C(=O)CCC(=O)N(CCCC)CCCC [TBSA, N,N,N′,N′‐tetrabutylsuccindiamide] | −3.4 Log M | – | – |  |
